Measurements: PMC12557380, “Optimization of 2,8-Diaryl-1,5-naphthyridines as Plasmodium falciparum Phosphatidylinositol 4‑Kinase Inhibitors with Improved ADME Profiles and In Vivo Efficacy” (Journal of Medicinal Chemistry, 2025)
In brackets after ≈: the same amount, converted by molar mass. Read-outs that look alike come from different tables or passages of the source.

Columns and labels:
[1] = system: P. falciparum NF54 (PfNF54) parasites; assay: In vitro antiplasmodial asexual blood stage activity, pLDH assay, NF54; format: cell-based, Plasmodium falciparum; details: Plasmodium falciparum
[2] = system: P. falciparum K1 (PfK1) strain; assay: In vitro antiplasmodial asexual blood stage activity, pLDH assay, K1; format: cell-based; details: Plasmodium falciparum
[3] = system: Chinese hamster ovary cells; assay: Cytotoxicity, MTT assay, CHO; format: cell-based; details: Cricetulus griseus, read-out: CHO IC50
physchem [4] = details: 25 °C, pH 6.5, aqueous buffer, thermodynamic from solid
[5] = for in vivo mouse CLb: total body clearance from whole blood, iv 3 mg/kg; for in vivo mouse CLu: unbound blood clearance from CLb and plasma protein binding
in vivo = details: male, Balb/C, mouse, po, 10 mg/kg
physchem [6] = details: n-octanol/phosphate buffer (1:1), pH 7.4
in vitro [7] = details: human, Caco-2
in vitro [8] = details: human, pH 7.4
in vitro [9] = details: mouse, pH 7.4
[10] = system: P. falciparum PI4K cKD line; assay: microbe, parasite or virus in culture; details: Plasmodium falciparum
HepG2 cells = assay: Cytotoxicity, MTT assay, HepG2; format: cell-based
[11] = system: L6 rat myoblast cell line; assay: Cytotoxicity, L6; format: cell-based; details: read-out: L6 IC50
[12] = system: PI4K S743F + H1484Y and PI4K S1320L + L1418F mutant lines; details: 72 h, SYBR green I
[13] = system: panel of the drug-resistant strains of P. falciparum; details: Figure 1, read-out: PfIC50; cited from earlier work
P. vivax PI4Kβ (PvPI4K) = details: cited from earlier work
HsPI4K = details: reported inhibitors, Figure 1; cited from earlier work
[14] = NF54, 72 h, pLDH assay, 72 h, read-out: Pf ABS IC50 NF54
[15] = NF54, mean, supplement, read-out: PfNF54 IC50
[16] = K1, mean, supplement, read-out: PfK1 IC50
[17] = K1, pLDH assay, 72 h, read-out: Pf ABS IC50 K1
[18] = K1, 72 h, read-out: Pf ABS IC50 K1
[19] = read-out: IC50 Mean + SD, +aTc, mean of N=3, +aTc
[20] = read-out: IC50 Mean + SD, no aTc, mean of N=3, no aTc
[21] = read-out: IC50 for PfPI4K, +aTc, N=1, +aTc
[22] = read-out: IC50 for PfPI4K, +aTc, N=2, +aTc
[23] = read-out: IC50 for PfPI4K, +aTc, N=3, +aTc
[24] = read-out: IC50 for PfPI4K, no aTc, N=1, no aTc (knockdown)
[25] = read-out: IC50 for PfPI4K, no aTc, N=2, no aTc (knockdown)
[26] = read-out: IC50 for PfPI4K, no aTc, N=3, no aTc (knockdown)
[27] = NF54, 72 h, read-out: Pf ABS IC50 NF54

Structure (SMILES)	IC50 [1, 14] [µM]	IC50 [1, 15] [µM]	IC50 [2, 17] [µM]	IC50 ([3]; one biological replicate) [µM]	solubility thermodynamic at 20 h (physchem [4]; aqueous solution) [µM]	in vivo mouse CLb [5] [mL/min/kg]	in vivo mouse CLu [5] [mL/min/kg]	bioavailability (in vivo) [%]	logD at 3 h (physchem [6])	CLint scaled at 1 µM (in vitro [8]; microsomes) [mL/min/kg]	CLint scaled at 1 µM (in vitro [8]; pooled human liver microsomes) [mL/min/kg]	CLint scaled at 1 µM (in vitro [9]; microsomes) [mL/min/kg]	CLint scaled at 1 µM (in vitro [9]; mouse liver microsomes) [mL/min/kg]	other results
CC(C)(O)c1ccc(-c2ccnc3ccc(-c4ccnc(N5C[C@H](O)[C@@H](O)C5)c4)nc23)cn1 [Compound 28, (3S,4S)-1-[4-[8-[6-(2-Hydroxypropan-2-yl)pyridin-3-yl]-1,5-naphthyridin-2-yl]pyridin-2-yl]pyrrolidine-3,4-diol]	0.043	0.0429	0.053	> 50	20 (≈ 8.87 µg/mL)	–	–	–	–	–	–	–	–	IC50 [2, 16]: 0.0527 µM
Cn1ccc(-c2ccnc3ccc(-c4cccc(S(C)(=O)=O)c4)nc23)cc1=O [Compound 34, 1-Methyl-4-[6-(3-methylsulfonylphenyl)-1,5-naphthyridin-4-yl]pyridin-2-one]	–	–	–	–	175 (≈ 68.5 µg/mL)	–	–	–	–	–	–	–	–	IC50 ([1]; NF54, read-out: PfNF54 IC50): 0.173 µM; IC50 [2, 18]: 0.34 µM; IC50 ([2]; K1, read-out: PfK1 IC50): 0.338 µM; IC50 [3]: 44 µM
Cn1ccc(-c2ccc3nccc(-c4cccc(S(C)(=O)=O)c4)c3n2)cc1=O [Compound 19, 1-Methyl-4-[8-(3-methylsulfonylphenyl)-1,5-naphthyridin-2-yl]pyridin-2-one]	0.016	–	–	47	–	102	300	27	1.46	< 13.4	< 19.7	< 45.7	< 67.2	solubility thermodynamic at 20 h (physchem [4]): 40 µM (≈ 15.7 µg/mL); Papp A→B (in vitro [7]): 14 ×10⁻⁶ cm/s; IC50 [10, 19]: 0.036 µM; IC50 [10, 20]: 0.0043 µM; IC50 [10, 21]: 0.0489 µM; IC50 [10, 22]: 0.0202 µM; IC50 [10, 23]: 0.0392 µM; IC50 [10, 24]: 0.0052 µM; IC50 [10, 25]: 0.0025 µM; IC50 [10, 26]: 0.0051 µM
CS(=O)(=O)c1cccc(-c2ccc3nccc(-c4cccc(C(=O)N5CCC(O)C5)c4)c3n2)c1 (stereo not shown) [Compound 36, [3-[6-(3-Methylsulfonylphenyl)-1,5-naphthyridin-4-yl]phenyl]-(3-hydroxypyrrolidin-1-yl)methanone]	–	–	–	–	50 (≈ 23.7 µg/mL)	–	–	–	–	–	–	–	–	IC50 [1, 27]: 0.22 µM; IC50 ([1]; NF54, read-out: PfNF54 IC50): 0.217 µM; IC50 [2, 18]: 0.24 µM; IC50 ([2]; K1, read-out: PfK1 IC50): 0.244 µM; IC50 [3]: 33 µM
Cn1ccc(-c2ccc3nccc(-c4ccc(C(C)(C)O)nc4)c3n2)cc1=O [Compound 24, 4-[8-[6-(2-Hydroxypropan-2-yl)pyridin-3-yl]-1,5-naphthyridin-2-yl]-1-methylpyridin-2-one]	0.036	0.0359	0.11	12	175 (≈ 65.2 µg/mL)	110	379	10	1.98	< 13.4	< 17.4	< 45.7	< 59.4	IC50 [2, 16]: 0.107 µM
CS(=O)(=O)c1cccc(-c2ccnc3ccc(N4CCC(O)CC4)nc23)c1 [Compound 21, 1-[8-(3-Methylsulfonylphenyl)-1,5-naphthyridin-2-yl]piperidin-4-ol]	0.032	–	–	49	150 (≈ 57.5 µg/mL)	80	533	37	2.27	< 13.4	< 17.6	< 45.7	< 60.1	IC50 (HepG2 cells; Homo sapiens, HepG2; read-out: HepG2 IC50): > 50 µM; IC50 [11]: 8 µM; Papp A→B (in vitro [7]): 18 ×10⁻⁶ cm/s; IC50 [10, 19]: 0.0845 µM; IC50 [10, 20]: 0.014 µM; IC50 [10, 21]: 0.131 µM; IC50 [10, 22]: 0.0689 µM; IC50 [10, 23]: 0.0536 µM; IC50 [10, 24]: 0.0217 µM; IC50 [10, 25]: 0.0105 µM; IC50 [10, 26]: 0.0097 µM
CS(=O)(=O)c1cccc(-c2ccc3nccc(-c4ccc(C(=O)N5CCC(O)C5)cc4)c3n2)c1 (stereo not shown) [Compound 37, (3-Hydroxypyrrolidin-1-yl)-[4-[6-(3-methylsulfonylphenyl)-1,5-naphthyridin-4-yl]phenyl]methanone]	0.032	0.0322	0.096	24	60 (≈ 28.4 µg/mL)	181	362	11	1.92	< 13.4	< 27.3	< 45.7	< 93.2	IC50 shift against PI4K mutant lines relative to parent Dd2 [12]: showed IC50 shifts; Papp A→B (in vitro [7]): 1.5 ×10⁻⁶ cm/s; efflux ratio (in vitro [7]): 32
CNC(=O)c1ccc(-c2cnc3cnc(C(=O)N(C)c4ccc(Cl)cc4)cn23)cc1 [KDU691]	–	–	–	–	–	–	–	–	–	–	–	–	–	IC50 [13]: 0.027 to 0.07 µM; IC50 (P. vivax PI4Kβ (PvPI4K)): 0.0016 µM; IC50 (HsPI4K): 7.9 µM
CC(C)(O)c1cccc(-c2ccc3nccc(-c4ccc(C(C)(C)O)nc4)c3n2)c1 [Compound 30, 2-[3-[8-[6-(2-Hydroxypropan-2-yl)pyridin-3-yl]-1,5-naphthyridin-2-yl]phenyl]propan-2-ol]	0.1	0.105	0.034	3	55 (≈ 22 µg/mL)	–	–	–	–	–	–	–	–	IC50 [2, 16]: 0.0345 µM
CNC(=O)Cc1cccc(-c2ccc3nccc(-c4ccc(C(C)(C)O)nc4)c3n2)c1 [Compound 27, 2-[3-[8-[6-(2-Hydroxypropan-2-yl)pyridin-3-yl]-1,5-naphthyridin-2-yl]phenyl]-N-methylacetamide]	–	–	–	–	–	–	–	–	–	–	–	–	–	IC50 [1, 27]: 0.051 µM; IC50 ([1]; NF54, read-out: PfNF54 IC50): 0.0507 µM; IC50 ([1]; NF54, read-out: free IC50): 0.04 µM; IC50 [2, 18]: 0.081 µM; IC50 ([2]; K1, read-out: PfK1 IC50): 0.0812 µM; IC50 [3]: 31 µM; IC50 (HepG2 cells; Homo sapiens, HepG2, read-out: HepG2 IC50): 6 µM; IC50 [11]: 38 µM
CNC(=O)c1cncc(-c2cnc(Cl)c(NS(=O)(=O)c3ccccc3)c2)c1 [CHMFL-PI4K-127, 6′-Chloro-N-Methyl-5′-(Phenylsulfonamido)-[3,3′-Bipyridine]-5-Carboxamide]	–	–	–	–	–	–	–	–	–	–	–	–	–	IC50 [13]: 0.024 to 0.047 µM; IC50 (P. vivax PI4Kβ (PvPI4K); reported inhibitors, Figure 1): 0.0009 µM; IC50 (HsPI4K): 0.43 µM
